According to patent US7223759B2, “Antibacterial 3,5-diaminopiperidine-substituted aromatic and heteroaromatic compounds” (Anadys Pharmaceuticals, Inc., priority 2003, dated 2007):

System: Escherichia coli (ATCC25922) or Staphylococcus aureus (ATCC25923)
Assay: Antibacterial MIC, microdilution method in Mueller-Hinton medium
Format: cell-based
Details: Escherichia coli, 18 h, MIC in E. coli or S. aureus; two-fold serial dilutions 64 to 0.5 μg/ml in duplicate; 18 hours of incubation at 35° C.; read-out: Potency (MIC)
Outline: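 Read after 18 h incubation at 35° C, MIC is the lowest compound level that blocked growth. Compounds were tested in duplicate over 64–0.5 μg/ml two-fold dilutions using Mueller-Hinton microdilution per NCCLS standard.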

| MIC [µg/mL] | Structure (SMILES) |
| --- | --- |
| > 64 | N[C@@H]1C[C@H](N)CN(c2nc(Nc3ccccc3S(N)(=O)=O)nc(N3C[C@H](N)C[C@H](N)C3)n2)C1 [N-(2-sulfamoyl-phenyl)-4,6-Bis-((3R,5S)-3,5-diamino-piperidin-1-yl)-[1,3,5]triazine-2-amine] |
| > 64 | CC(C)(C)C(=O)Nc1ccc(S(=O)(=O)Nc2ccc(Nc3nc(N4C[C@H](N)C[C@H](N)C4)nc(N4C[C@H](N)C[C@H](N)C4)n3)cc2O)cc1.Cl [N-{4-[4-(2,2-dimethyl-propionylamino)-benzenesulfonylamino]-3-hydroxy-phenyl}-4,6-Bis-((3R,5S)-3,5-diamino-piperidin-1-yl)-[1,3,5]triazine-2-amine] |
| < 16 | Cl.O=C(CC(=O)c1ccc(Nc2nc(N3CCCCC3)nc(N3CCCCC3)n2)cc1)Nc1cccc(Br)c1 [N-{4-[2-(3-bromo-phenylcarbamoyl)-acetyl]-phenyl}-4,6-Biss-((3R,5S)-3,5-diamino-piperidin-1-yl)-[1,3,5]triazine-2-amine] |
| > 64 | Cc1ccc(S(=O)(=O)N(C)C)cc1Nc1nc(N2C[C@H](N)C[C@H](N)C2)nc(N2C[C@H](N)C[C@H](N)C2)n1 [N-(5-dimethylsulfamoyl-2-methyl-phenyl)-4,6-Bis-((3R,5S)-3,5-diamino-piperidin-1-yl)-[1,3,5]triazine-2-amine] |
| > 64 | Cl.N[C@@H]1C[C@H](N)CN(c2nc(N3C[C@H](N)C[C@H](N)C3)nc(N(c3ccccc3)c3ccc(O)cc3)n2)C1 [4-{[4,6-Bis-((3R,5S)-3,5-diamino-piperidin-1-yl)-[1,3,5]triazin-2-yl]-phenyl-amino}-phenyl] |
| < 16 | COc1ccc(Nc2ccc(NC(=O)CC(=O)c3ccc(Nc4nc(N5C[C@H](N)C[C@H](N)C5)nc(N5C[C@H](N)C[C@H](N)C5)n4)cc3)cc2)cc1 [N-(4-{2-[4-(4-methoxy-phenylamino)-phenylcarbamoyl]-acetyl}-phenyl)-4,6-Bis-((3R,5S)-3,5-diamino-piperidin-1-yl)-[1,3,5]triazine-2-amine] |
| < 64 | Cl.O=C(Nc1ccc(Nc2nc(N3CCCCC3)nc(N3CCCCC3)n2)cc1)c1ccc2ccccc2c1O [1-Hydroxy-naphthalene-2-carboxylic acid {4-[4-((3S,5R)-3,5-diamino-piperidin-12-yl)-6-((3R,5R)-3,5-dihydroxy-piperidin-1-yl)-[1,3,5]triazin-2-ylamino]-phenyl}-amide] |
| > 64 | Cl.O=C(CCCCC1SCC2NC(=O)NC21)Nc1ccc(Nc2nc(N3CCCCC3)nc(N3CCCCC3)n2)cc1O [5-((S)-2-Oxo-hexahydro-thieno[3,4-d]imidazol-2-yl)-penanoicacid {4-[4-((3S,5S)-3-amino-5-azido-piperidin-1-yl)-6-((3S,5R)-3,5-diamino-piperidin-1-yl)-[1,3,5]triazin-2-ylamino]-2-hydroxy-phenyl}-amide] |
| < 64 | Cc1cc(Nc2nc(N3CCCCC3)nc(N3CCCCC3)n2)ccc1N1C(=O)c2ccc(Cl)cc2C1=O.Cl [N-[4-(5-chloro-1,3-dioxo-1,3-dihydro-isoindol-22-yl)-3-methyl-phenyl]-4,6-Bis-((3R,5S)-3,5-diamino-piperidin-1-yl)-[1,3,5]triazine-2-amine] |

| Structure (SMILES) | MIC [µg/mL] |
| --- | --- |
| N[C@@H]1C[C@H](N)CN(c2nc(Nc3ccc(O)c4ncccc34)nc(N3C[C@H](N)C[C@H](N)C3)n2)C1 [N-(8-hydroxy-quinolin-5-yl)-4,6-Bis-((3R,5S)-3,5-diamino-piperidin-1-yl)-[1,3,5]triazine-2-amine] | < 64 |
| N[C@@H]1C[C@H](N)CN(c2cc(N3C[C@H](N)C[C@H](N)C3)cc(N(c3ccc([N+](=O)[O-])cc3)c3ccc([N+](=O)[O-])cc3)c2)C1 [(3,5-Bis-((3R,5S)-3,5-diamino-piperidin-1-yl)-phenyl)-bis-(4-nitro-phenyl)-amine] | < 64 |

Same assay, conditions: Escherichia coli, 18 h, read-out: Potency (MIC)

| Structure (SMILES) | MIC [µg/mL] |
| --- | --- |
| N[C@@H]1C[C@H](N)CN(c2nc(NCc3ccc(Cl)cc3Cl)nc(N3C[C@H](N)C[C@H](N)C3)n2)C1 [N-(2,4-dichloro-benzyl)-4,6-Bis-((3R,5S)-3,5-diamino-piperidin-1-yl)-[1,3,5]triazin-2-amine] | > 64 |
| Cc1cccc(NNc2nc(N3C[C@H](N)C[C@H](N)C3)nc(N3C[C@H](N)C[C@H](N)C3)n2)c1 [N-(4,6-Bis-((3R,5S)-3,5-diamino-piperidin-1-yl)-[1,3,5]triazin-2-yl)-N′-m-Tolyl-hydrazine] | < 64 |
| N[C@@H]1C[C@H](N)CN(c2nc(Nc3ccc(O)c4ncccc34)nc(N3C[C@H](N)C[C@H](N)C3)n2)C1 [N-(8-hydroxy-quinolin-5-yl)-4,6-Bis-((3R,5S)-3,5-diamino-piperidin-1-yl)-[1,3,5]triazine-2-amine] | < 16 |
| Cc1ccc(S(=O)(=O)N(Cc2ccccc2)c2ccc(Nc3nc(N(CCN)CCN)nc(N4C[C@H](N)C[C@H](N)C4)n3)c(O)c2)cc1 [N-Benzyl-N-{4-[4-[bis-(2-amino-ethyl)-amino]-6-((3R,5S)-3,5-diamino-piperidin-1-yl)-[1,3,5]triazin-2-ylamino]-3-hydroxy-phenyl}-4-methyl-benzenesulfonamide] | < 64 |
| N[C@@H]1C[C@H](N)CN(c2nc(NNc3ccccn3)nc(N3C[C@H](N)C[C@H](N)C3)n2)C1 [N-(4,6-Bis-((3R,5S)-3,5-diamino-piperidin-1-yl)-[1,3,5]triazin-2-yl)-N′-Pyridin-2-yl-hydrazine] | > 64 |
| N[C@@H]1C[C@H](N)CN(c2nc(N3C[C@H](N)C[C@H](N)C3)c(Cl)c(Nc3ccc(NC(=O)c4ccc5ccccc5c4O)cc3)c2Cl)C1 [1-Hydroxy-naphthalene-2-carboxylic acid [4-(3,5-dichloro-2,6-Bis-((3R,5S)-3,5-diamino-piperidin-1-yl)-pyridin-4-ylamino)-phenyl]-amide] | < 16 |
| NCCN(CCN)c1nc(Nc2ccc(NC(=O)C(=O)c3c[nH]c4ccccc34)c(O)c2)nc(N2C[C@H](N)C[C@H](N)C2)n1 [N-{4-[4-[Bis-(2-amino-ethyl)-amino]-6-((3R,5S)-3,5-diamino-piperidin-1-yl)-[1,3,5]triazin-2-ylamino]-2-hydroxy-phenyl}-2-(1H-indol-3-yl)-2-oxo-acetamide] | < 16 |
| N[C@@H]1C[C@H](N)CN(c2nc(Nc3ccc(NC(=O)c4ccc5ccccc5c4O)cc3)nc(N3C[C@H](N)C[C@H](N)C3)n2)C1 [N-{4-[(1-hydroxy-naphthalene-2-carbonyl)-amino]-phenyl}-4,6-Bis-((3R,5S)-3,5-diamino-piperidin-1-yl)-[1,3,5]triazine-2-amine] | < 16 |
| CCn1c2ccccc2c2cc(Nc3nc(N4C[C@H](N)C[C@H](N)C4)nc(N4C[C@H](N)C[C@H](N)C4)n3)ccc21 [N-(9-ethyl-9H-carbazol-3-yl)-4,6-Bis-((3R,5S)-3,5-diamino-piperidin-1-yl)-[1,3,5]triazine-2-amine] | < 64 |
| NC[C@@H]1C[C@@H](O)CN1c1nc(Nc2ccc(C(=O)CC(=O)Nc3ccccc3Cl)cc2)nc(N2C[C@H](N)C[C@H](N)C2)n1 [3-{4-[4-((2S,4R)-2-Aminomethyl-4-hydroxy-pyrrolidin-1-yl)-6-((3R,5S)-3,5-diamino-piperidin-1-yl)-[1,3,5]triazin-2-ylamino]-phenyl}-N-(2-chloro-phenyl)-3-oxo-propionamide] | < 64 |
| COc1cccc(OC)c1CNc1nc(N2C[C@H](N)C[C@H](N)C2)nc(N2C[C@H](N)C[C@H](N)C2)n1 [N-(2,6-dimethoxy-benzyl)-4,6-Bis-((3R,5S)-3,5-diamino-piperidin-1-yl)-[1,3,5]triazine-2-amine] | > 64 |
| N[C@@H]1C[C@H](N)CN(c2nc(Nc3ccc(C(=O)N4CCOCC4)c(O)c3)nc(N3C[C@H](N)C[C@H](N)C3)n2)C1 [N-[3-hydroxy-4-(morpholine-4-carbonyl)-phenyl]-4,6-Bis-((3R,5S)-3,5-diamino-piperidin-1-yl)-[1,3,5]triazine-2-amine] | > 64 |
| N[C@@H]1C[C@H](N)CN(c2nc(Nc3ccc(C(=O)N4CCNC(=O)C4)c(O)c3)nc(N3C[C@H](N)C[C@H](N)C3)n2)C1 [N-[3-hydroxy-4-(3-oxo-piperazine-1-carbonyl)-phenyl]-4,6-Bis-((3R,5S)-3,5-diamino-piperidin-1-yl)-[1,3,5]triazine-2-amine] | > 64 |
| N[C@@H]1C[C@H](N)CN(c2nc(Nc3ccc(NC(=O)c4ccc(O)cc4O)c(O)c3)nc(N3C[C@H](N)C[C@H](N)C3)n2)C1 [N-[4-(2,4-dihydroxy-benzoylamino)-3-hydroxy-phenyl]-4,6-Bis-((3R,5S)-3,5-diamino-piperidin-1-yl)-[1,3,5]triazine-2-amine] | < 16 |
| Cc1cccc(C(=O)Nc2ccc(Nc3nc(N4C[C@H](N)C[C@H](N)C4)nc(N4C[C@H](N)C[C@H](N)C4)n3)cc2O)c1O [N-[3-hydroxy-4-(2-hydroxy-3-methyl-benzoylamino)-phenyl]-4,6-Bis-((3R,5S)-3,5-diamino-piperidin-1-yl)-[1,3,5]triazine-2-amine] | < 16 |
| Cc1ccccc1NNc1nc(N2C[C@H](N)C[C@H](N)C2)nc(N2C[C@H](N)C[C@H](N)C2)n1 [N-(4,6-Bis-((3R,5S)-3,5-diamino-piperidin-1-yl)-[1,3,5]triazin-2-yl)-N′-o-Tolyl-hydrazine] | < 64 |
| COc1nc(Nc2ccc(C(C)=O)cc2)nc(N2C[C@H](N)C[C@H](N)C2)n1 [1-{4-[4-((3R,5S)-3,5-Diamino-piperidin-1-yl)-6-methoxy-[1,3,5]triazin-2-ylamino]-phenyl}-ethanone] | > 64 |
| NC[C@@H]1C[C@H](N)CN1c1nc(Nc2ccc(C(=O)Oc3ccccc3)c(O)c2)nc(N2C[C@H](N)C[C@H](N)C2)n1 [4-[4-((2S,4S)-4-Amino-2-aminomethyl-pyrrolidin-1-yl)-6-((3R,5S)-3,5-diamino-piperidin-1-yl)-[1,3,5]triazin-2-ylamino]-2-hydroxy-benzoic acid phenyl ester] | < 16 |
| N[C@@H]1C[C@H](N)CN(c2nc(Nc3ccc(C(=O)Nc4cccc(OC(F)(F)F)c4)c(O)c3)nc(N3C[C@H](N)C[C@H](N)C3)n2)C1 [N-[3-hydroxy-4-(3-trifluoromethoxy-phenylcarbamoyl)-phenyl]-4,6-Bis-((3R,5S)-3,5-diamino-piperidin-1-yl)-[1,3,5]triazine-2-amine] | < 16 |
